The results in this text go back to patent US20260217706A1, “HETEROCYCLIC COMPOUNDS, PREPARATION METHOD THEREFOR AND USE THEREOF” (GUANGZHOU YUFAN NANTU BIOTECHNOLOGIES CO., LTD, priority 2023, published 2026).

As a reminder, the Ki is the dissociation constant of the complex between target and ligand, obtained from inhibition or displacement. A lower Ki goes with a stronger hold on the target.

Sequence of CBL-B protein (Q13191 whole entry): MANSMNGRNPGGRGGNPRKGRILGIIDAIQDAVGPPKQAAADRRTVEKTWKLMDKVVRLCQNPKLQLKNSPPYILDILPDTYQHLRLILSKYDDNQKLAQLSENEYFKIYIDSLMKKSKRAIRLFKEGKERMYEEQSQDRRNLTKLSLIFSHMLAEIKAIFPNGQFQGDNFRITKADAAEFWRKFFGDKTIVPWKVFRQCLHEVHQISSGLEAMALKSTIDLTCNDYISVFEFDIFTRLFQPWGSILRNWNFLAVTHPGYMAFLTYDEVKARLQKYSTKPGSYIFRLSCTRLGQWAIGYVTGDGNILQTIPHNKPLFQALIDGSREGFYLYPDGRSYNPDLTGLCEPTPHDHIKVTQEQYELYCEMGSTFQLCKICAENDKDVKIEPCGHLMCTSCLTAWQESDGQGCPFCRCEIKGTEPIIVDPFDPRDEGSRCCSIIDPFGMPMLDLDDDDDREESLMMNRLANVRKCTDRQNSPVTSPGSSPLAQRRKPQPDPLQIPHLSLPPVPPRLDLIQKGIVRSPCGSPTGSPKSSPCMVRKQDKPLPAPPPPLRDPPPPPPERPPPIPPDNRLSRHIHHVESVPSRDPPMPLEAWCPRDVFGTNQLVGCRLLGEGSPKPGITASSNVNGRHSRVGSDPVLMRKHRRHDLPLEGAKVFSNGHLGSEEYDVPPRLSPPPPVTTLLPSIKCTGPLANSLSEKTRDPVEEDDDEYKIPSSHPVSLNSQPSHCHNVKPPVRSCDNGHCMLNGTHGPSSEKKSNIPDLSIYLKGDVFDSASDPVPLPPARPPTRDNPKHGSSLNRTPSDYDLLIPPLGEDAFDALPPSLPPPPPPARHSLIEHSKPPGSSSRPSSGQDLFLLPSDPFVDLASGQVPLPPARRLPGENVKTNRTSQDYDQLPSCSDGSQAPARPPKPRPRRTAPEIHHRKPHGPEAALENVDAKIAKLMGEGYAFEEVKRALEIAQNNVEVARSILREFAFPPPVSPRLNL

The target in this assay is CBL-B protein (Homo sapiens, UniProt Q13191). Kind of assay: CBL-B binding experiment (Streptavidin-Tb cryptate / Ligand L1 displacement). As to conditions: 8 nM CBL-B protein, 25° C., 60 minutes; Ki=Relative IC50/2. How it is done:
The reaction system mainly includes 1× buffer, 20 mM HEPES pH 7.5, 150 mM NaCl, 0.01% Triton X-100, 0.5 mM TCEP, and 0.1% ug/ml BSA. The compound is continuously diluted with DMSO for 10 concentration points, and 150 nL is transferred to the experimental plate. The experimental reaction begins after adding 8 nM of CBL-B protein and the reaction is carried out at 25° C. for 60 minutes. […] After an additional 60 minutes of incubation at room temperature, the experimental plate is read using an EnVision plate. The luminescence signal values were converted to percentage inhibition rates. Inhibition %=(Sample value−Maximum value)/(Minimum value−Maximum value)×100. The minimum value refers to the measured value in the wells without CBL-B protein but with DMSO and Ligand, while the maximum value refers to the measured value in the wells with DMSO, CBL-B protein, and Ligand. The IC50 values are calculated by XLFit (version 5.3.1.3) in Excel. Equation: Y=Bottom+(Top−Bottom)/(1+(IC50/X)^HillSlope); Ki=Relative IC50/2.
For `CO[C@H]1CCN(Cc2cc3c(C(F)(F)F)cn(-c4cccc(C5(c6nncn6C)CCC5)c4)c(=O)c3[nH]2)C[C@H]1F` [Compound T108, 2-(((3R,4S)-3-fluoro-4-methoxypiperidin-1-yl)methyl)-6-(3-(1-(4-methyl-4H-1,2,4-triazol-3-yl)cyclobutyl)phenyl)-4-(trifluoromethyl)-1,6-dihydro-7H-pyrrolo[2,3-c]pyridin-7-one], the Ki is less than 50 nM. To `C[C@H]1CN(Cc2cc3c(C(F)(F)F)cn(-c4cccc(C5(c6nncn6C)CCC5)c4)c(=O)c3[nH]2)CCC1(F)F` [Compound T110, 2-[[(3S)-4,4-difluoro-3-methyl-1-piperidyl]methyl]-6-[3-[1-(4-methyl-1,2,4-triazol-3-yl)cyclobutyl]phenyl]-4-(trifluoromethyl)-1H-pyrrolo[2,3-c]pyridin-7-one] belongs less than 50 nM; to `Cn1cnnc1C1(c2cccc(-n3cc(C(F)(F)F)c4cc(CN5CCC(C(F)F)CC5)[nH]c4c3=O)c2)CCC1` [Compound T112, 2-[[4-(difluoromethyl)-1-piperidyl]methyl]-6-[3-[1-(4-methyl-1,2,4-triazol-3-yl)cyclobutyl]phenyl]-4-(trifluoromethyl)-1H-pyrrolo[2,3-c]pyridin-7-one], less than 50 nM; to `C[C@@H]1CCN(Cc2cc3c(C(F)(F)F)cn(-c4cccc(C5(c6nncn6C)CCC5)c4)c(=O)c3[nH]2)CC1(F)F` [Compound T115, (R)-2-((3,3-difluoro-4-methylpiperidin-1-yl)methyl)-6-(3-(1-(4-methyl-4H-1,2,4-triazol-3-yl)cyclobutyl)phenyl)-4-(trifluoromethyl)-1,6-dihydro-7H-pyrrolo[2,3-c]pyridin-7-one], 50 to 100 nM.

On to `C[C@H]1CCN(Cc2cc3c(C(F)(F)F)cn(-c4cccc(C5(c6nncn6C)CCC5)c4)c(=O)c3[nH]2)CC1(F)F` [Compound T116, (S)-2-((3,3-difluoro-4-methylpiperidin-1-yl)methyl)-6-(3-(1-(4-methyl-4H-1,2,4-triazol-3-yl)cyclobutyl)phenyl)-4-(trifluoromethyl)-1,6-dihydro-7H-pyrrolo[2,3-c]pyridin-7-one], for which the inhibitory constant (Ki) lay in the range of 50 to 100 nM. To `CCN(CC)Cc1cc2c(C(F)(F)F)cn(-c3cccc([C@]4(c5nncn5C)C[C@@H](OC)C4)c3)c(=O)c2[nH]1` [Compound T117, 2-((diethylamino)methyl)-6-(3-((1s,3s)-3-methoxy-1-(4-methyl-4H-1,2,4-triazol-3-yl)cyclobutyl)phenyl)-4-(trifluoromethyl)-1,6-dihydro-7H-pyrrolo[2,3-c]pyridin-7-one] belongs less than 50 nM; to `CCN(CC)Cc1cc2c(C(F)(F)F)cn(-c3cccc([C@]4(c5nncn5C)C[C@H](OC)C4)c3)c(=O)c2[nH]1` [Compound T118, 2-((diethylamino)methyl)-6-(3-((1r,3r)-3-methoxy-1-(4-methyl-4H-1,2,4-triazol-3-yl)cyclobutyl)phenyl)-4-(trifluoromethyl)-1,6-dihydro-7H-pyrrolo[2,3-c]pyridin-7-one], less than 50 nM. In turn, `Cn1cnnc1C1(c2cccc(-n3cc(C(F)(F)F)c4cc(CN5CCC[C@]6(CCOC6)C5)[nH]c4c3=O)c2)CCC1` [Compound T123, (S)-2-((2-oxa-7-azaspiro[4.5]decan-7-yl)methyl)-6-(3-(1-(4-methyl-4H-1,2,4-triazol-3-yl)cyclobutyl)phenyl)-4-(trifluoromethyl)-1,6-dihydro-7H-pyrrolo[2,3-c]pyridin-7-one] displayed a Ki of less than 50 nM. The compound `Cn1cnnc1C1(c2cccc(-n3cc(C(F)(F)F)c4cc(CN5CCC[C@@]6(CCOC6)C5)[nH]c4c3=O)c2)CCC1` [Compound T124, (R)-2-((2-oxa-7-azaspiro[4.5]decan-7-yl)methyl)-6-(3-(1-(4-methyl-4H-1,2,4-triazol-3-yl)cyclobutyl)phenyl)-4-(trifluoromethyl)-1,6-dihydro-7H-pyrrolo[2,3-c]pyridin-7-one] had a Ki of 100 to 500 nM.

`Cn1cnnc1C1(c2cccc(-n3cc(C(F)(F)F)c4cc(CN5CCC6(CCOC6)CC5)[nH]c4c3=O)c2)CCC1` [Compound T125, 2-((2-oxa-8-azaspiro[4.5]decan-8-yl)methyl)-6-(3-(1-(4-methyl-4H-1,2,4-triazol-3-yl)cyclobutyl)phenyl)-4-(trifluoromethyl)-1,6-dihydro-7H-pyrrolo[2,3-c]pyridin-7-one]: the Ki is less than 50 nM. Next, `CC1CC(c2cc(C(N)=O)cc(-n3cc(C(F)(F)F)c4cc(CN5CCC[C@H](C)C5)[nH]c4c3=O)c2)(c2nncn2C)C1` (stereo partly drawn) [Compound T127, 3-[3-methyl-1-(4-methyl-1,2,4-triazol-3-yl)cyclobutyl]-5-[2-[[(3S)-3-methyl-1-piperidyl]methyl]-7-oxo-4-(trifluoromethyl)-1H-pyrrolo[2,3-c]pyridin-6-yl]benzamide]: less than 50 nM; `CC1CC(c2cc(C(=O)O)cc(-n3cc(C(F)(F)F)c4cc(CN5CCC[C@H](C)C5)[nH]c4c3=O)c2)(c2nncn2C)C1` (stereo partly drawn) [Compound T128, 3-[3-methyl-1-(4-methyl-1,2,4-triazol-3-yl)cyclobutyl]-5-[2-[[(3S)-3-methyl-1-piperidyl]methyl]-7-oxo-4-(trifluoromethyl)-1H-pyrrolo[2,3-c]pyridin-6-yl]benzoic acid]: less than 50 nM. For the compound `C[C@H]1CCCN(Cc2cc3c(C(F)(F)F)cn(-c4cccc(C5(c6nncn6C)COC5)c4)c(=O)c3[nH]2)C1` [Compound T129, (S)-6-(3-(3-(4-methyl-4H-1,2,4-triazol-3-yl)oxetan-3-yl)phenyl)-2-((3-methylpiperidin-1-yl)methyl)-4-(trifluoromethyl)-1,6-dihydro-7H-pyrrolo[2,3-c]pyridin-7-one], the Ki was less than 50 nM. To `C[C@@H]1CN(Cc2cc3c(C(F)(F)F)cn(-c4cccc([C@]5(c6nncn6C)C[C@@H](C)C5)c4)c(=O)c3[nH]2)CCN1C(=O)OC(C)(C)C` [Compound T141, tert-butyl (2R)-2-methyl-4-[[6-[3-[3-methyl-1-(4-methyl-1,2,4-triazol-3-yl)cyclobutyl]phenyl]-7-oxo-4-(trifluoromethyl)-1H-pyrrolo[2,3-c]pyridin-2-yl]methyl]piperazine-1-carboxylate] belongs less than 50 nM. Next, `C[C@@H]1CN(Cc2cc3c(C(F)(F)F)cn(-c4cccc([C@]5(c6nncn6C)C[C@@H](C)C5)c4)c(=O)c3[nH]2)CCN1` [Compound T142, 6-[3-[3-methyl-1-(4-methyl-1,2,4-triazol-3-yl)cyclobutyl]phenyl]-2-[[(3R)-3-methylpiperazin-1-yl]methyl]-4-(trifluoromethyl)-1H-pyrrolo[2,3-c]pyridin-7-one]: less than 50 nM; `CO[C@H]1C[C@@](c2cccc(-n3cc(C(F)(F)F)c4cc(CN5CC6CC6C5)[nH]c4c3=O)c2)(c2nncn2C)C1` (stereo partly drawn) [Compound T143, 2-((3-azabicyclo[3.1.0]hexan-3-yl)methyl)-6-(3-((1s,3s)-3-methoxy-1-(4-methyl-4H-1,2,4-triazol-3-yl)cyclobutyl)phenyl)-4-(trifluoromethyl)-1,6-dihydro-7H-pyrrolo[2,3-c]pyridin-7-one]: less than 50 nM; `CO[C@H]1C[C@](c2cccc(-n3cc(C(F)(F)F)c4cc(CN5CC6CC6C5)[nH]c4c3=O)c2)(c2nncn2C)C1` (stereo partly drawn) [Compound T144, 2-((3-azabicyclo[3.1.0]hexan-3-yl)methyl)-6-(3-((1r,3r)-3-methoxy-1-(4-methyl-4H-1,2,4-triazol-3-yl)cyclobutyl)phenyl)-4-(trifluoromethyl)-1,6-dihydro-7H-pyrrolo[2,3-c]pyridin-7-one]: less than 50 nM. Regarding `CO[C@H]1C[C@](c2cccc(-n3cc(C(F)(F)F)c4cc(CN5CC6CCC(C6)C5)[nH]c4c3=O)c2)(c2nncn2C)C1` [Compound T146, 2-((3-azabicyclo[3.2.1]octan-3-yl)methyl)-6-(3-((1r,3r)-3-methoxy-1-(4-methyl-4H-1,2,4-triazol-3-yl)cyclobutyl)phenyl)-4-(trifluoromethyl)-1,6-dihydro-7H-pyrrolo[2,3-c]pyridin-7-one], the Ki was less than 50 nM. Turning to `CO[C@H]1C[C@](c2cccc(-n3cc(C(F)(F)F)c4cc(CN5CCCC6(CC6)C5)[nH]c4c3=O)c2)(c2nncn2C)C1` [Compound T148, 2-((5-azaspiro[2.5]octan-5-yl)methyl)-6-(3-((1r,3r)-3-methoxy-1-(4-methyl-4H-1,2,4-triazol-3-yl)cyclobutyl)phenyl)-4-(trifluoromethyl)-1,6-dihydro-7H-pyrrolo[2,3-c]pyridin-7-one], the Ki is less than 50 nM. The compound `CCN(Cc1cc2c(C(F)(F)F)cn(-c3cccc([C@]4(c5nncn5C)C[C@H](OC)C4)c3)c(=O)c2[nH]1)CC(C)C` [Compound T150, 2-((ethyl(isobutyl)amino)methyl)-6-(3-((1r,3r)-3-methoxy-1-(4-methyl-4H-1,2,4-triazol-3-yl)cyclobutyl)phenyl)-4-(trifluoromethyl)-1,6-dihydro-7H-pyrrolo[2,3-c]pyridin-7-one] returned a Ki of less than 50 nM.

In the case of `CO[C@H]1C[C@@](c2cccc(-n3cc(C(F)(F)F)c4cc(CNCCC5CC5)[nH]c4c3=O)c2)(c2nncn2C)C1` [Compound T153, 2-(((2-cyclopropylethyl)amino)methyl)-6-(3-((1s,3s)-3-methoxy-1-(4-methyl-4H-1,2,4-triazol-3-yl)cyclobutyl)phenyl)-4-(trifluoromethyl)-1,6-dihydro-7H-pyrrolo[2,3-c]pyridin-7-one], the Ki was less than 50 nM.
